Reference: patent US8846933B2, “N-link hydroxamic acid derivatives useful as antibacterial agents” (Pfizer Inc., priority 2009, dated 2014)

How the values were obtained:
Assay type in all cases: cell-based
[1] = test system: Acinetobacter baumanii/haemolyticus: Multidrug-resistant clinical isolate (AB-3167); assay: MIC determination (CLSI), strain AB-3167; conditions: unit assumed
Summary of the method: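 Using the multidrug-resistant Acinetobacter baumanii/haemolyticus clinical isolate AB-3167, minimum inhibitory concentrations were determined following CLSI dilution susceptibility standards.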

[2] = test system: Escherichia coli EC-1: VOGEL, mouse virulent; assay: MIC determination (CLSI), strain EC-1; conditions: Escherichia coli EC-1, VOGEL, mouse virulent; unit assumed
Summary of the method: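 The mouse-virulent VOGEL isolate of E. coli, EC-1, served as test organism. Minimum inhibitory concentration was measured by CLSI dilution methodology (M7-A7; M100-S18 standards).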

[3] = test system: Pseudomonas aeruginosa UI-18: Wild-type (PA-7); assay: MIC determination (CLSI), strain PA-7; conditions: Pseudomonas aeruginosa UI-18, wild-type; unit assumed
Summary of the method: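 Strain tested was P. aeruginosa UI-18, a wild-type isolate labelled PA-7. Minimum inhibitory concentrations followed CLSI dilution methodology for aerobically growing bacteria (M7-A7, M100-S18).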

| Structure (SMILES) | AB-3167 (MIC) [1] | EC-1 (MIC) [2] | PA-7 (MIC) [3] |
| --- | --- | --- | --- |
| C[C@@](CCn1ccc(-c2ccc(Cl)cc2F)cc1=O)(C(=O)NO)S(C)(=O)=O [Example 20, (2R)-4-[4-(4-chloro-2-fluorophenyl)-2-oxopyridin-1(2H)-yl]-N-hydroxy-2-methyl-2-(methylsulfonyl)butanamide] | > 64 µg/mL | 0.25 µg/mL | 0.25 µg/mL |
| C[C@@](CCn1ccc(-c2ccc3ccccc3c2)cc1=O)(C(=O)NO)S(C)(=O)=O [Example 68-A, (2R)-N-hydroxy-2-methyl-2-(methylsulfonyl)-4-[4-(2-naphthyl)-2-oxopyridin-1(2H)-yl]butanamide] | > 64 µg/mL | 0.06 µg/mL | 0.5 µg/mL |
| CC1(O)CCC(Oc2ccc(-c3ccn(CC[C@](C)(C(=O)NO)S(C)(=O)=O)c(=O)c3)cc2F)CC1 (stereo partly drawn) [Example 10-I, (2R)-4-[4-{3-fluoro-4-[(4-hydroxy-4-methylcyclohexyl)oxy]phenyl}-2-oxopyridin-1(2H)-yl]-N-hydroxy-2-methyl-2-(methylsulfonyl)butanamide] | > 64 µg/mL | 0.5 µg/mL | 2 µg/mL |
| C[C@@](CCn1ccc(-c2c(F)ccc(F)c2F)cc1=O)(C(=O)NO)S(C)(=O)=O [Example 22, (2R)-N-hydroxy-2-methyl-2-(methylsulfonyl)-4-[2-oxo-4-(2,3,6-trifluorophenyl)pyridin-1(2H)-yl]butanamide] | > 64 µg/mL | 2 µg/mL | 4 µg/mL |
| COc1ccc(COc2ccc(-c3ccn(CC[C@](C)(C(=O)NO)S(C)(=O)=O)c(=O)c3)cc2)cn1 [Example 59, (2R)-N-hydroxy-4-[4-{4-[(6-methoxypyridin-3-yl)methoxy]phenyl}-2-oxopyridin-1(2H)-yl]-2-methyl-2-(methylsulfonyl)butanamide] | > 64 µg/mL | 0.25 µg/mL | 1 µg/mL |
| C[C@@](CCn1ccc(-c2ccc(-c3ccccc3)s2)cc1=O)(C(=O)NO)S(C)(=O)=O [Example 68-P, (2R)-N-hydroxy-2-methyl-2-(methylsulfonyl)-4-[2-oxo-4-(5-phenyl-2-thienyl)pyridin-1(2H)-yl]butanamide] | > 64 µg/mL | 0.06 µg/mL | 8 µg/mL |
| CC(CCn1ccc(-c2ccc3cccnc3c2)cc1=O)(C(=O)NO)S(C)(=O)=O (stereo not drawn) [Example 36, N-hydroxy-2-methyl-2-(methylsulfonyl)-4-(2-oxo-4-quinolin-7-ylpyridin-1(2H)-yl)butanamide] | > 64 µg/mL | 4 µg/mL | 8 µg/mL |
| Cc1cnc(-c2ccc(-c3ccn(CC[C@](C)(C(=O)NO)S(C)(=O)=O)c(=O)c3)cc2)o1 [Example 38, (2R)-N-hydroxy-2-methyl-4-{4-[4-(5-methyl-1,3-oxazol-2-yl)phenyl]-2-oxopyridin-1(2H)-yl}-2-(methylsulfonyl)butanamide] | > 64 µg/mL | 0.06 µg/mL | 0.5 µg/mL |
| C[C@@](CCn1ccc(-c2ccc(-c3nccs3)cc2)cc1=O)(C(=O)NO)S(C)(=O)=O [Example 68-D, (2R)-N-hydroxy-2-methyl-2-(methylsulfonyl)-4-{2-oxo-4-[4-(1,3-thiazol-2-yl)phenyl]pyridin-1(2H)-yl}butanamide] | > 64 µg/mL | 0.06 µg/mL | 0.5 µg/mL |
| CC(CCn1ccc(OCCc2ccccc2)cc1=O)(C(=O)NO)S(C)(=O)=O (stereo not drawn) [Example 68-U, N-hydroxy-2-methyl-2-(methylsulfonyl)-4-[2-oxo-4-(2-phenylethoxy)pyridin-1(2H)-yl]butanamide] | > 64 µg/mL | 32 µg/mL | 64 µg/mL |
| Cc1cc(-c2ccn(CC[C@](C)(C(=O)NO)S(C)(=O)=O)c(=O)c2)ccc1-c1cc(CO)no1 [Example 63, N-Hydroxy-4-[4-{4-[3-(hydroxymethyl)isoxazol-5-yl]-3-methylphenyl}-2-oxopyridin-1(2H)-yl]-2-methyl-2-(methylsulfonyl)butanamide] | > 64 µg/mL | 2 µg/mL | 4 µg/mL |
| CC(CCn1ccc(C2CCCCC2)cc1=O)(C(=O)NO)S(C)(=O)=O (stereo not drawn) [Example 53, 4-(4-Cyclohexyl-2-oxopyridin-1(2H)-yl)-N-hydroxy-2-methyl-2-(methylsulfonyl)butanamide] | > 64 µg/mL | 16 µg/mL | 8 µg/mL |
| CO/N=C(\C)c1ccc(-c2ccn(CCC(C)(C(=O)NO)S(C)(=O)=O)c(=O)c2)cc1 (stereo not drawn) [Example 62, N-Hydroxy-4-[4-{4-[(1E)-N-methoxyethanimidoyl]phenyl}-2-oxopyridin-1(2H)-yl]-2-methyl-2-(methylsulfonyl)butanamide] | > 64 µg/mL | 0.5 µg/mL | 4 µg/mL |
| C[C@@](CCn1ccc(-c2ccc(C3CCOCC3)cc2)cc1=O)(C(=O)NO)S(C)(=O)=O [Example 47, (2R)-N-hydroxy-2-methyl-2-(methylsulfonyl)-4-{2-oxo-4-[4-(tetrahydro-2H-pyran-4-yl)phenyl]pyridin-1(2H)-yl}butanamide] | > 64 µg/mL | 0.5 µg/mL | 2 µg/mL |
| Cc1nc(-c2ccc(-c3ccn(CC[C@](C)(C(=O)NO)S(C)(=O)=O)c(=O)c3)cc2)co1 [Example 25, (2R)-N-hydroxy-2-methyl-4-{4-[4-(2-methyl-1,3-oxazol-4-yl)phenyl]-2-oxopyridin-1(2H)-yl}-2-(methylsulfonyl)butanamide] | > 64 µg/mL | 1 µg/mL | 2 µg/mL |
| COCCSc1ccc(-c2ccn(CC[C@](C)(C(=O)NO)S(C)(=O)=O)c(=O)c2)cc1 [Example 48, (2R)-N-hydroxy-4-[4-{4-[(2-methoxyethyl)thio]phenyl}-2-oxopyridin-1(2H)-yl]-2-methyl-2-(methylsulfonyl)butanamide] | > 64 µg/mL | 0.25 µg/mL | 1 µg/mL |
| CC(C)(O)CCCOc1ccc(-c2ccn(CCC(C)(C(=O)NO)S(C)(=O)=O)c(=O)c2)cc1 (stereo not drawn) [Example 10-E, N-hydroxy-4-[4-{4-[(4-hydroxy-4-methylpentyl)oxy]phenyl}-2-oxopyridin-1(2H)-yl]-2-methyl-2-(methylsulfonyl)butanamide] | > 64 µg/mL | 0.5 µg/mL | 2 µg/mL |
| Cc1ccc(-c2ccn(CC[C@](C)(C(=O)NO)S(C)(=O)=O)c(=O)c2)c(F)c1 [Example 13, (2R)-4-[4-(2-fluoro-4-methylphenyl)-2-oxopyridin-1(2H)-yl]-N-hydroxy-2-methyl-2-(methylsulfonyl)butanamide] | > 64 µg/mL | 0.5 µg/mL | 0.5 µg/mL |
| C[C@@](CCn1ccc(-c2ccc(CC3CC(O)C3)cc2)cc1=O)(C(=O)NO)S(C)(=O)=O (stereo partly drawn) [Example 68-M, (2R)-N-hydroxy-4-[4-{4-[(3-hydroxycyclobutyl)methyl]phenyl}-2-oxopyridin-1(2H)-yl]-2-methyl-2-(methylsulfonyl)butanamide] | > 64 µg/mL | 0.5 µg/mL | 2 µg/mL |
| C[C@@](CCn1ccc(-c2ccc([C@H]3C[C@@H](O)C3)cc2)cc1=O)(C(=O)NO)S(C)(=O)=O [Example 5, (2R)-N-hydroxy-4-{4-[4-(cis-3-hydroxycyclobutyl)phenyl]-2-oxopyridin-1(2H)-yl}-2-methyl-2-(methylsulfonyl)butanamide] | > 64 µg/mL | 4 µg/mL | 2 µg/mL |
| C[C@@](CCn1ccc(-c2ccc(OC[C@H]3CC[C@H](O)CC3)cc2)cc1=O)(C(=O)NO)S(C)(=O)=O [Example 9, (2R)-N-hydroxy-4-[4-{4-[(trans-4-hydroxycyclohexyl)methoxy]phenyl}-2-oxopyridin-1(2H)-yl]-2-methyl-2-(methylsulfonyl)butanamide] | 32 µg/mL | 0.25 µg/mL | 1 µg/mL |
| C[C@@](CCn1ccc(-c2ccc(-n3nccn3)cc2)cc1=O)(C(=O)NO)S(C)(=O)=O [Example 40, (2R)-N-hydroxy-2-methyl-2-(methylsulfonyl)-4-{2-oxo-4-[4-(2H-1,2,3-triazol-2-yl)phenyl]pyridin-1(2H)-yl}butanamide] | > 64 µg/mL | 0.03 µg/mL | 0.25 µg/mL |
| C[C@@](CCn1ccc(-c2ccc(F)cc2)cc1=O)(C(=O)NO)S(C)(=O)=O [Example 41, (2R)-4-[4-(4-fluorophenyl)-2-oxopyridin-1(2H)-yl]-N-hydroxy-2-methyl-2-(methylsulfonyl)butanamide] | > 64 µg/mL | 1 µg/mL | 0.5 µg/mL |
| CC(C)(O)C1CC(Oc2ccc(-c3ccn(CC[C@](C)(C(=O)NO)S(C)(=O)=O)c(=O)c3)cc2)C1 (stereo partly drawn) [Example 10-H, (2R)-N-hydroxy-4-[4-(4-{[3-(1-hydroxy-1-methylethyl)cyclobutyl]oxy}phenyl)-2-oxopyridin-1(2H)-yl]-2-methyl-2-(methylsulfonyl)butanamide] | > 64 µg/mL | 1 µg/mL | 2 µg/mL |
| Cc1c(-c2ccccc2)ccn(CCC(C)(C(=O)NO)S(C)(=O)=O)c1=O (stereo not drawn) [Example 52, N-Hydroxy-2-methyl-4-(3-methyl-2-oxo-4-phenylpyridin-1(2H)-yl)-2-(methylsulfonyl)butanamide] | > 64 µg/mL | 2 µg/mL | 4 µg/mL |
| C[C@H](O)c1ccc2cc(-c3ccn(CC[C@](C)(C(=O)NO)S(C)(=O)=O)c(=O)c3)ccc2c1 [Example 68-N, (2R)-N-hydroxy-4-[4-{6-[(1S)-1-hydroxyethyl]-2-naphthyl}-2-oxopyridin-1(2H)-yl]-2-methyl-2-(methylsulfonyl)butanamide] | > 64 µg/mL | 0.5 µg/mL | 2 µg/mL |
